Legend:
Assay type in all cases: cell-based, human
[1] = system: TSP1, KDR, eNOS and phospho-AKT in vascular endothelial cells differentiated from normal iPSCs; assay: Western blotting of vasculopathy-related proteins after LysoGb3 treatment; settings: treated for 3, 6, or 9 days; Western blot, FIG. 19
Method: (§1) Particularly, the FB-iPSCs prepared in Example 1 were treated with Fabrazyme, a therapeutic agent for Fabry disease, and starvation media in various combinations. Pro-Prep solution (Intron Biotechnology, Korea) was added to each sample and reacted at 4° C., followed by centrifugation at 1300 rpm for 10 minutes to obtain a supernatant. The obtained supernatant was electrophoresed on acrylamide gel and transferred to a nitrocellulose membrane, followed by blocking with 4% skim milk. Then, anti-LC3 antibody (1:1000, Santacruz, USA) was treated thereto and reacted at 4° C. for 24 hours, followed by washing three times with TBS containing tween-20. The protein expression level was confirmed by the conventional Western blotting. The expression level of each protein was corrected using GAPDH as a control.
The changes in the expression levels of vasculopathy-related proteins by Gb3 protein were confirmed using Western blotting. Particularly, the vascular endothelial cells differentiated from normal iPSCs were treated with LysoGb3 protein for 3, 6, or 9 days, and Western blotting was performed in the same manner as described in Experimental Example <3-1>. At this time, anti-TSP1 antibody (1:1000, Santacruz, USA), anti-KDR antibody (1:1000, Cell Signaling Technologies, USA), anti-eNOS antibody (1:1000, Cell Signaling Technologies, USA), anti-AKT antibody (1:1000, Cell Signaling Technologies, USA), and anti-phospho-AKT antibody (1:1000, Cell Signaling Technologies, USA) were used as antibodies.

[2] = system: KDR, eNOS and TSP1 genes in vascular endothelial cells differentiated from normal iPSCs; assay: RT-PCR of vasculopathy-related genes after LysoGb3 treatment
Method: Particularly, the vascular endothelial cells differentiated from normal iPSCs were treated with LysoGb3 protein for 1, 3 or 5 days, and RNA was extracted from the cells using easy-BLUE (Intron). Then, RT-PCR was performed in the conventional manner to confirm the RNA expression levels of KDR, eNOS and TSP1 (Thrombospondin 1) genes related to vasculopathy. As a result, as shown in FIGS. 18a to 18c, the RNA expression levels of KDR, eNOS and TSP1 genes were increased 1 day after the treatment of LysoGb3 protein.

[3] = system: TSP1 protein in vascular endothelial cells differentiated from normal iPSCs; assay: Immunostaining of TSP1 protein expression location after LysoGb3 treatment; settings: FIG. 20
[4] = system: vascular endothelial cells differentiated from normal iPSCs; assay: Morphology of vascular endothelial cells differentiated from normal iPSCs after LysoGb3 treatment; settings: treated for 9 days; FIG. 17
Method: Particularly, the vascular endothelial cells differentiated from normal iPSCs were treated with LysoGb3 protein (MATREYA LLC, USA) for 9 days, and then the morphology of the cells was confirmed.

[5] = system: TSP1, KDR and eNOS proteins in vascular endothelial cells differentiated from FB-iPSCs; assay: Western blotting of vasculopathy-related proteins in vascular endothelial cells differentiated from FB-iPSCs
Method: as §1
Particularly, the vascular endothelial cells prepared in Example 2 were treated with Fabrazyme, and Western blotting was performed in the same manner as described in Experimental Example <3-1>. At this time, anti-KDR antibody (1:1000, Cell Signaling Technologies, USA), anti-eNOS antibody (1:1000, Cell Signaling Technologies, USA) and anti-TSP1 antibody (1:1000, Santacruz, USA) were used as antibodies.
Particularly, using the control group treated with only Fabrazyme on the vascular endothelial cells prepared in Example 2 and the experimental group treated with Fabrazyme and SB431542, Western blotting was performed in the same manner as described in Experimental Example <3-1>. At this time, anti-TSP1 antibody (1:1000, Santacruz, USA), anti-KDR antibody (1:1000, Cell Signaling Technologies, USA) and anti-eNOS antibody (1:1000, Cell Signaling Technologies, USA) were used as antibodies.

[6] = system: vascular endothelial cells differentiated from FB-iPSCs; assay: Tube formation on matrigel (vasculogenesis) of vascular endothelial cells differentiated from FB-iPSCs; settings: SB431542 only or Fabrazyme and SB431542 vs Fabrazyme only; FIGS. 23a-23e
Method: On the other hand, 70 μl of matrigel (corning) stock solution was put in a 96-well plate and hardened at 37° C., and then 1×10^4 vascular endothelial cells prepared in Example 2 and EGM2 medium were added thereto to confirm the tube formation. Particularly, using the control group treated with only Fabrazyme on the vascular endothelial cells prepared in Example 2, the experimental group treated with only SB431542, and the experimental group treated with Fabrazyme and SB431542, The tube formation was confirmed in the same manner as described in Experimental Example <4-2>.

[7] = system: vascular endothelial cells differentiated from FB-iPSCs; assay: Morphology of vascular endothelial cells differentiated from FB-iPSCs after TGF-β inhibitor treatment; settings: for therapeutic effect on vasculopathy in patients with Fabry disease: conclusion of Experimental Example 9, patient-derived vascular endothelial cells
Method: Particularly, the FB-iPSCs prepared in Example 1 were cultured in a feeder-free state for 3 days. Thereafter, the medium was exchanged with RPMI-1640 medium containing 1% B27, to which 50 ng/ml of activin A and 20 ng/ml of BPM4 were added as growth factors, and then the cells were cultured for 2 days to differentiate into mesoderm cells. The medium was exchanged with RPMI-1640 medium containing 0.5% B27, to which 50 ng/ml of VEGFA and 50 ng/ml of bFGF were added as growth factors, and then the cells were cultured for 2 days to differentiate into vascular progenitors. CD34 positive cells capable of differentiating into vascular endothelial cells were isolated from the induced vascular progenitors by performing magnetic activated cell sorting (MACS) using CD34 magnetic beads. The isolated CD34 positive cells were further cultured for 2 days in EGM-2 medium (Lonza, USA) containing 100 ng/ml of VEGF-A and 100 ng/ml of bFGF as growth factors to differentiate into vascular endothelial cells. Particularly, using the control group treated with only Fabrazyme on the vascular endothelial cells prepared in Example 2, the experimental group treated with only SB431542 (Cayman Chemical, USA), and the experimental group treated with Fabrazyme and SB431542, the morphology of the cells was confirmed. Particularly, using the control group treated with only Fabrazyme on the vascular endothelial cells prepared in Example 2, the experimental group treated with Fabrazyme and SB431542, and the experimental group treated with Fabrazyme and losartan (Cayman Chemical, USA), the morphology of the cells was confirmed.

[8] = system: TSP1 protein in vascular endothelial cells differentiated from normal iPSCs; assay: Western blotting after activin A treatment of vascular endothelial cells differentiated from normal iPSCs; settings: activin A treatment of normal iPSC-derived vascular endothelial cells; FIG. 15
Method: as §1
Particularly, the vascular endothelial cells differentiated from normal iPSCs were treated with activin A to activate TGF-β, and Western blotting was performed in the same manner as described in Experimental Example <3-1>. […]

[9] = system: LC3, Beclin 1 and ubiquitin proteins in vascular endothelial cells of patients with Fabry disease; assay: Western blotting of LC3, Beclin 1 and ubiquitin in vascular endothelial cells of patients with Fabry disease
Method: as §1
Particularly, vascular endothelial cells were isolated from the dermal tissue obtained from the patients with Fabry disease of Example 1, to which Fabrazyme was treated. Then, the expression levels of LC3, Beclin 1 and ubiquitin proteins were confirmed by performing Western blotting in the same manner as described in Experimental Example <3-1>. At this time, anti-LC3 antibody (1:1000, Santacruz, USA), anti-Beclin 1 antibody (1:500, Santacruz, USA), and anti-ubiquitin antibody (1:1000, Santacruz, USA) were used as antibodies.

[10] = system: LC3 protein in FB-iPSCs; assay: Western blotting of LC3 protein in FB-iPSCs; settings: Fabrazyme and starvation media in various combinations, vs normal cells, FIG. 4
Method: as §1

[11] = system: SMAD2 protein phosphorylation in vascular endothelial cells differentiated from FB-iPSCs; assay: Western blotting of SMAD2 phosphorylation (TGF-β activation) in vascular endothelial cells differentiated from FB-iPSCs; settings: Fabrazyme treatment; vs normal control group; FIG. 14
Method: as §1
Particularly, the vascular endothelial cells prepared in Example 2 were treated with Fabrazyme, and Western blotting was performed in the same manner as described in Experimental Example <3-1>. At this time, anti-SMAD2 antibody (1:1000, Cell Signaling Technologies, USA) and anti-phospho-SMAD2 antibody (1:1000, Cell Signaling Technologies, USA) were used as antibodies.

[12] = Fabrazyme and SB431542 vs Fabrazyme only, Western blot, FIG. 22
[13] = given with Fabrazyme vs Fabrazyme only, Fab #1, Fab #2 (FIGS. 24a, 24b)
[14] = vascular endothelial cells of Fabry patients, Fabrazyme treatment, vs normal cells, FIG. 5

## CCCCCCCCCCCCC/C=C/[C@@H](O)[C@@H](N)CO[C@@H]1O[C@H](CO)[C@@H](O[C@@H]2O[C@H](CO)[C@H](O[C@H]3O[C@H](CO)[C@H](O)[C@H](O)[C@H]3O)[C@H](O)[C@H]2O)[C@H](O)[C@H]1O [LysoGb3 protein]
[1]
  expression level of KDR protein: decreased
  expression level of TSP1 protein: increased
  expression level of eNOS protein: decreased
  phosphorylation of AKT protein: decreased
[2]; 1 day after the treatment
  RNA expression level of KDR gene: increased
  RNA expression level of TSP1 gene: increased
  RNA expression level of eNOS gene: increased
[2]; after 3 and 5 days
  RNA expression level of KDR gene: lower than those of the normal control cells
  RNA expression level of eNOS gene: lower than those of the normal control cells
[3]
  expression location (distribution) of TSP1 protein: distributed throughout the cells
[4]
  morphology of the normal vascular endothelial cells: changed to a widening form

## NC(=O)c1ccc(-c2nc(-c3ccc4c(c3)OCO4)c(-c3ccccn3)[nH]2)cc1 [SB431542]
[5]; [12]
  expression level of KDR protein: increased
  expression level of TSP1 protein: decreased
  expression level of eNOS protein: increased
[6]
  tube formation on matrigel: formed a tube shape
[7]; SB431542 only or Fabrazyme and SB431542 vs Fabrazyme only, Fab #1-#4 (FIGS. 21a-21e)
  abnormal morphology of the vascular endothelial cells differentiated from FB-iPSCs: restored to normal
[7]
  therapeutic effect on vasculopathy in patients with Fabry disease: showed a therapeutic effect
[7]; [13]
  abnormal morphology of the vascular endothelial cells differentiated from FB-iPSCs: restored to normal

## CCCCc1nc(Cl)c(CO)n1Cc1ccc(-c2ccccc2-c2nn[nH]n2)cc1 [losartan]
[7]
  therapeutic effect on vasculopathy in patients with Fabry disease: could not be confirmed
[7]; [13]
  abnormal morphology of the vascular endothelial cells differentiated from FB-iPSCs: had no effect

B1: activin A: growth factor used to activate TGF-β (protein, UniProt P08476 311-426, looked up)
Inhibin beta A chain: GLECDGKVNICCKKQFFVSFKDIGWNDWIIAPSGYHANYCEGECPSHIAGTSGSSLSFHSTVINHYRMRGHSPFANLKSCCVPTKLRPMSMLYYDDGQNIIKKDIQNMIVEECGCS
modifications: Inhibin beta A chain
[8]
  expression of TSP1 protein: increased

B2: Fabrazyme: recombinant alpha-galactosidase enzyme, a therapeutic agent for Fabry disease (protein, UniProt P06280 32-429, looked up)
Alpha-galactosidase A: LDNGLARTPTMGWLHWERFMCNLDCQEEPDSCISEKLFMEMAELMVSEGWKDAGYEYLCIDDCWMAPQRDSEGRLQADPQRFPHGIRQLANYVHSKGLKLGIYADVGNKTCAGFPGSFGYYDIDAQTFADWGVDLLKFDGCYCDSLENLADGYKHMSLALNRTGRSIVYSCEWPLYMWPFQKPNYTEIRQYCNHWRNFADIDDSWKSIKSILDWTSFNQERIVDVAGPGGWNDPDMLVIGNFGLSWNQQVTQMALWAIMAAPLFMSNDLRHISPQAKALLQDKDVIAINQDPLGKQGYQLRQGDNFEVWERPLSGLAWAVAMINRQEIGGPRSYTIAVASLGKGVACNPACFITQLLPVKRKLGFYEWTSRLRSHINPTGTVLLQLENTMQMSLKDLL
[5]; Fabrazyme treatment, vs normal control group, FIG. 13
  increased expression level of TSP1 protein by Fabry disease: not inhibited
[9]; after the treatment of Fabrazyme, conclusion of Experimental Example 3
  characteristics of the lysosomal storage disease: not recovered
[9]; [14]
  expression level of Beclin 1 protein: higher in vascular endothelial cells of patients with Fabry disease than in normal cells regardless of the Fabrazyme treatment
  expression level of LC3 protein: higher in vascular endothelial cells of patients with Fabry disease than in normal cells regardless of the Fabrazyme treatment
  expression level of ubiquitin protein: higher in vascular endothelial cells of patients with Fabry disease than in normal cells regardless of the Fabrazyme treatment
[10]
  expression level of LC3 protein: higher in FB-iPSCs than in normal cells regardless of the Fabrazyme treatment
[11]
  phosphorylation level of SMAD2 protein: increased in the vascular endothelial cells derived from patients with Fabry disease compared to the normal control group regardless of the Fabrazyme treatment

— patent US20220034908A1, “PHARMACEUTICAL COMPOSITION FOR PREVENTING OR TREATING FABRY DISEASE, CONTAINING TSP1 PROTEIN INHIBITOR AS ACTIVE INGREDIENT” (KOREA ADVANCED INSTITUTE OF SCIENCE AND TECHNOLOGY, priority 2018, published 2022)
